Data as given in patent publication US7525013B2, “Soybean selection system based on AEC-resistance” (United Soybean Board, priority 2003, dated 2009).

What was measured:
[1] = test system: Clones expressing the insensitive plant DHPS enzymes (E. coli auxotroph AT997); conditions: clones expressing lysine insensitive plant DHPS; cited from earlier work
model system seeds = assay: Germination of model system seeds on AEC containing agar plates; format: in vivo; conditions: 2 mM and 5 mM AEC agar plates
Method: (§1) An AEC selection system for soybean seeds with precise genetic changes and model system seeds (for rapid system validation) were germinated on 2 mM and 5 mM AEC containing agar plates. On the control plates without AEC all the seeds germinated, however only ˜10% of the soybean seeds germinated on 2 mM AEC plates and none on 5 mM plates.

[2] = test system: cultured cells and seedlings; assay: Selection studies with cultured cells and seedlings; format: cell-based
Method: (§2) A major dicot and monocot weed of tobacco, pigweed (Amaranthus retroflexus) and giant foxtail (Setaria faberi) was used in addition to a model crop plant, tobacco. […] For larger plants grown in the green house 20 mM lysine and threonine or 40 mM lysine alone are needed for effective weed control. To increase uptake of these compounds, up to 0.2% Silwett (surfactant) was used. Silwett at 0.5% and above kills the plants. Silwett was not found to be a very effective surfactant. Studies with cultured cells and seedlings indicate that 100 μM levels of AEC are effective for selection.

[3] = test system: germinating soybean somatic embryos; assay: Germination of soybean somatic embryos; format: cell-based
Method: (§3) As a first step in the selection, different concentrations of AEC were used to see if it can kill the proliferating soybean somatic embryos as well as tobacco leaves and germinating tobacco and soybean seeds and germinating soybean somatic embryos. The effect of AEC is clearly seen in all these cases with varying concentrations. […] For proliferating soybean somatic embryo concentrations up to 1 mM AEC is needed along with 0.0075% methylated seed oil to kill them. To further confirm that AEC is acting on the above mentioned tissues, the E. coli DHDPS gene was cloned and put into the binary vector p1201 with the pea RBCs transit peptide under the CaMV 35S promoter.
The effect of AEC on soybean somatic embryos were checked at two stages (1) during the germination (2) during proliferation. The AEC effect during germination was very effective with concentrations above 100 μM were enough to prevent the germination completely.
(§4) To determine whether AEC can be developed as a selectable marker for soybeans the effect of different concentrations of AEC was examined on the germination of soybean seeds and matured soybean somatic embryos and on proliferating soybean somatic embryos. The effect of AEC is clearly seen in all these cases with varying concentrations. The effect of AEC was also examined as a herbicide against pigweed, foxtail and tobacco.

[4] = test system: pigweed (Amaranthus retroflexus); assay: Herbicide spray study on pigweed; format: in vivo
Method: (§5) Spray studies have been done using major dicot and monocot weeds, pigweed (Amaranthus retroflexus) and giant foxtail (Setaria faberi) in addition to tobacco. These experiments using 7 to 10 day old seedlings show 20 mM AEC is lethal to pigweed, foxtail and tobacco.
as §2

soybean seeds = assay: Germination of soybean seeds on AEC containing agar plates; format: in vivo
Method: as §3, §1, §4

tobacco seeds = assay: Germination of tobacco seeds; format: in vivo; conditions: germinating tobacco seeds
Method: as §3

tobacco = assay: Herbicide spray study on tobacco; format: in vivo
Method: as §5, §2

[5] = test system: giant foxtail (Setaria faberi); assay: Herbicide spray study on giant foxtail; format: in vivo
Method: as §5, §2

[6] = test system: E. coli auxotroph AT998 rescued with modified soybean DHPS gene; assay: Growth of E. coli auxotroph rescued with modified soybean DHPS gene on 2-AEC plates; format: cell-based; conditions: minimal media plates with 0.5 mM 2-AEC
Source text: To test if the modified soy DHDPS can become insensitive to AEC and whether 18:1 desaturases can function as a 16:1 desaturase, experiments were conduced with E. Coli auxotrophs. A DHDPS auxotroph was obtained from the E. coli genetic center that can be rescued on medium without diaminopimelic acid when transformed with lysine insensitive DHPS and not with the wild type gene. Similarly, the E. coli auxotroph (fabA/fadR mutant) was obtained which can be complimented by C14 and C16 ACP desaturases but not by stearoyl-ACP desaturases. The primers required for cloning were designated and obtained from soybean genes. A suitable E. coli expression vector was obtained to express these genes in the respective auxotrophs.
It was shown in Arabidopsis, and populous deltoidsXpopulus tricho carpa modification of tryptophan53 (W) to Arginine53 (R) made the DHPS enzyme from these two plants insensitive to lysine concentrations up to 1 mM. E. coli auxotroph AT997 was rescued using these modified genes. This tryptophan residue is present in the consensus sequence MSWDEHI (SEQ ID NO: 6) in several plant DHPS genes (Vauterin et al.,2000). […] With our modified soybean DHPS gene we obtained similar results. We also targeted the tryptophan residue present in the consensus sequence MSWDEHI (SEQ ID NO: 6) in the soybean DHPS gene to convert it to arginine.

DHPS enzyme of E. coli = DHPS enzyme of E. coli (Escherichia coli, UniProt P0A6L2); conditions: E. coli DHPS versus plant enzymes; cited from earlier work
[7] = test system: proliferating soybean somatic embryos; assay: Killing / growth inhibition of proliferating soybean somatic embryos; format: cell-based
Method: as §3
However, selection during proliferation is always a better way as selected clones can be proliferated and the untransformed embryos can be killed in the earlier stages itself. Unfortunately concentrations up to 20 mM were not sufficient to kill most of the proliferating embryos, though some of the embryos turned yellowish and developed brown spots, but many of them continued to proliferate like controls even after two changes of the medium, once every 15 days. To find out if surfactants can help in AEC absorption during proliferation a methylated seed oil based surfactant was used. […] It was determined that a 0.005% concentration is suitable to use with AEC. […] The cultures on plates with 20 mM AEC died in 4 days indicating solid medium selection can be useful.
as §5

[8] = test system: DHPS enzyme, tryptophan53 (W) to Arginine53 (R); conditions: W53R DHPS; cited from earlier work
plant enzymes (DHPS) = conditions: read-out: IC50 for lysine; cited from earlier work
[9] = test system: larger plants grown in the green house; assay: Weed control on larger plants grown in the green house; format: in vivo
Method: as §2

[10] = target: T1, DHPS enzyme, tryptophan53 (W) to Arginine53 (R) (Arabidopsis thaliana, UniProt Q9LZX6, W116R); conditions: W53R DHPS; cited from earlier work
T1 construct: host or cells: E. coli auxotroph AT997 (clones expressing the plant cDNA)
T1 sequence (Q9LZX6 40-365 W116R): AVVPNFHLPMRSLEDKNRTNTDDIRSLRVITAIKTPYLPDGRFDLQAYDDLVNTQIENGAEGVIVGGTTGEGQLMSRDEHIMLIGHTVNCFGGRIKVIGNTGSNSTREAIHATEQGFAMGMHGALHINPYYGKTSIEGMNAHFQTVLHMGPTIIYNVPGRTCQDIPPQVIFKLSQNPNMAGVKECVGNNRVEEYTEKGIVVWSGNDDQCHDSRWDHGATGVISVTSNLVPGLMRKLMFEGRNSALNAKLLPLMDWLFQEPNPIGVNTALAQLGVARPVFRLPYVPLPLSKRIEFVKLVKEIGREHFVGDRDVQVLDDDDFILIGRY

Sequence of DHPS enzyme of E. coli (P0A6L2 whole entry): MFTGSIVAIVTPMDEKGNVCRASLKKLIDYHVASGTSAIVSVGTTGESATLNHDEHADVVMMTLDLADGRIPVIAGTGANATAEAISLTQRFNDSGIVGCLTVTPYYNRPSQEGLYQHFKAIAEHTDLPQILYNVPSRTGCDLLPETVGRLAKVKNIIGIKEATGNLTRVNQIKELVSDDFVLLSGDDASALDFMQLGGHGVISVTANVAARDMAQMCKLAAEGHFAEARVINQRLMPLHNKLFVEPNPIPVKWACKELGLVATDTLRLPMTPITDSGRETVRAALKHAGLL

Compound: NCCSC[C@H](N)C(=O)O [AEC, S-2-aminoethyl-cysteine]
- 2-AEC concentration to which clones were resistant [1]: 2.5 mM
- model system seeds germinated (model system seeds): Not a single model system seed germinated
- AEC levels effective for selection [2]: 100 µM
- effect on germination of soybean somatic embryos ([3]; 100 μM AEC): quite effective
- AEC concentration sufficient to completely inhibit germination of soybean somatic embryos ([3]; Example 1): 100 μm
- inhibition of soybean somatic embryos (SSE) germination ([3]; qualitative): can inhibit
- concentration lethal to pigweed ([4]; 7 to 10 day old seedlings): 20 mM
- concentration that effectively prevented the growth of pig weed ([4]; whole plant level): 20 mM
- soybean seeds germinated (soybean seeds; 2 mM AEC agar plates, all seeds germinated on control plates): ~10%
- effect on germination of soybean seeds (soybean seeds; 2.5 mM AEC): quite effective
- soybean seeds germinated (soybean seeds; 5 mM AEC agar plates): none
- inhibition of seed germination (soybean seeds; qualitative): can inhibit
- AEC concentration required to completely inhibit germination of tobacco seeds (tobacco seeds): 2.5 mM
- concentration lethal to tobacco (tobacco; 7 to 10 day old seedlings): 20 mM
- concentration sufficient to kill tobacco (tobacco; whole plant level): 20 mM
- concentration lethal to foxtail ([5]; 7 to 10 day old seedlings): 20 mM
- concentration sufficient to kill fox tail ([5]; whole plant level): 20 mM
- growth of rescued auxotroph [6]: grows well
- fold less sensitive to AEC than plant enzymes (DHPS enzyme of E. coli): 50 fold
- AEC concentration needed to kill proliferating soybean somatic embryos ([7]; along with 0.0075% methylated seed oil): up to 1 mM
- AEC concentration sufficient to kill proliferating soybean somatic embryos ([7]; on 1/5th D20 medium (1/5 MS salts, 1/5 B5 vitamins, 20 mg/L 2,4-D)): 1.5 mM
- time until cultures died ([7]; solid medium plates, 0.2% surfactant, 20 mM AEC): 4 days
- state of proliferating embryo cultures ([7]; solid medium, 0.2% surfactant, 10 mM AEC, controls behaved the same): remained green with growth for two weeks before they died
- AEC concentrations not sufficient to kill most of the proliferating embryos ([7]; without surfactant, two changes of medium, once every 15 days): up to 20 mM

Compound: NCCCC[C@H](N)C(=O)O [lysine]
- lysine concentrations to which the modified DHPS enzyme is insensitive [8]: up to 1 mM
- IC50 (plant enzymes (DHPS)): 10 µM
- concentration needed for effective weed control [9]: 40 mM
- lysine concentrations to which the modified DHPS enzyme is insensitive [10]: up to 1 mM
